{"source": "patent US20220073475A1", "about": "“5-MEMBERED HETEROARYL COMPOUNDS CONTAINING A HYDROXAMATE MOIETY AND THEIR USE” (UNIVERSITE DE LILLE, priority 2019, published 2022)", "note": "Where “and” joins values, the source holds several entries; their conditions need not be identical. Equal entries are not always repeated.", "data": [{"tested_on": "OPM2 cells", "assay": "CFZ potency increase, ratio of CC50 of CFZ alone / with compound", "format": "cell-based, human", "conditions": "OPM2, compound at 7.5 μM (Table 5)", "from_the_text": "Human multiple myeloma cells OPM2 (ACC 50, DSMZ) are maintained at 0.3-0.7 10^6 cells/mL in RPMI1640 medium supplemented with GlutaMAX™, 10% fetal bovine serum and 1% penicillin-streptomycin.\nWe developed a cell-based, high content assay allowing the rapid detection and quantification of apoptotic cells. Caspase-3/7 activity was detected in real-time using the NucView™ 488 Caspase-3 substrate (Biotium), where the caspase-3/7 substrate peptide sequence DEVD is attached to a nucleic acid dye. The NucView™ 488 reagent crosses the plasma membrane to enter the cytoplasm, where the dye is unable to bind to DNA and remains non-fluorescent. Once the substrate has been cleaved by activated caspase-3/7 in apoptotic cells, the high-affinity DNA dye is released and migrates to the cell nucleus to stain the nucleus with a bright green fluorescence. All cell nuclei were also labeled with Hoechst 33342 (Ozyme).\nFor OPM2, briefly, nanoliters of compound and cytotoxic agent in DMSO stock solutions were first transferred and combined in 384-microtiter well plate using an Echo555 liquid handler (Labcyte). The exact volume of each solution to be transferred was calculated to achieve subsequently the target concentration in the 70 μL volume incubate. Final DMSO content was maintained at 0.2%. Then, 70 μL of cells treated with 1 μM NucView™ 488 and 20 ng/mL Hoechst 33342 were distributed to the plates to obtain a final density of 12,000 cells per well. The microplates were incubated at 37° C. and 5% CO2 in an automated LiCONiC STR240 UB cell incubator, and images were acquired at various times at 405 nm and 488 nm with the high-resolution automated confocal microscope INCell 6000 (GE). Four fields per well were read with the 20× objective in a confocal mode. The BioCel workstation was managed by VWorks automation control software\nFor all cells, Columbus software (Perkin) was used for image quantification and analysis. First, Hoechst 33342 staining was used for an automated detection of nuclei, in which the mean fluorescence intensity for NucView™ 488 was quantified. Inspection of control cells at initial time was used to set a threshold level of NucView™ 488 fluorescence to separate non apoptotic cells from apoptotic cells. Finally, for each well, the result was expressed as percentage of apoptotic cells in the total cell population. CC50 values were calculated from concentration-response curves by a nonlinear regression analysis at four parameters using Excel Fit or GraphPad Prim softwares.\nActivity=(% of apoptotic cells with cytotoxic agent in combination with compound of the invention)/(% of apoptotic cells with cytotoxic agent alone). • Ratio of CC50: The CC50 of the cytotoxic agent was calculated in absence and in presence of a compound of the invention.\nActivity=(CC50 of agent alone)/(CC50 of agent with compound). • Ratio of AUC. Activity=(Area of the dose-concentration curve of cytotoxic agent combined with one concentration of compound)/(Area of the dose-concentration curve of cytotoxic agent alone). (Lehar J. et al, 2008 (molecular systems biology 4:215)).", "values": [{"molecule": "O=C(C[C@@H](Cc1ccc2ccccc2c1)n1nncc1CNC(=O)C1CCCCC1)NO", "note": "[Compound 13, (R)-Cyclohexanecarboxylic acid [3-(1-hydroxycarbamoylmethyl-2-naphthalen-2-yl-ethyl)-3H-[1,2,3]triazol-4-ylmethyl]-amide]", "Activity: ratio (CC50 of CFZ alone)/(CC50 of CFZ in combination with compound of the invention)": 1.2}, {"molecule": "O=C(C[C@@H](Cc1ccc2ncsc2c1)n1cc(CNC(=O)c2ccc(F)c(F)c2)nn1)NO", "note": "[Compound 178, (R)—N-((1-(1-(benzo[d]thiazol-6-yl)-4-(hydroxyamino)-4-oxobutan-2-yl)-1H-1,2,3-triazol-4-yl)methyl)-3,4-difluorobenzamide]", "Activity: ratio (CC50 of CFZ alone)/(CC50 of CFZ in combination with compound of the invention)": 1.3}, {"molecule": "O=C(C[C@@H](Cc1ccc2ccccc2c1)n1cc(CCNC(=O)c2ccc(F)c(F)c2)nn1)NO", "note": "[Compound 57, 3,4-difluoro-N-[2-[1-[(1R)-3-(hydroxyamino)-1-(2-naphthylmethyl)-3-oxo-propyl]triazol-4-yl]ethyl]benzamide]", "Activity: ratio (CC50 of CFZ alone)/(CC50 of CFZ in combination with compound of the invention)": 1.7}, {"molecule": "O=C(C[C@@H](Cc1ccc2ccccc2c1)n1cc(C2COCCN2C(=O)c2ccc(F)c(F)c2)nn1)NO", "note": "(stereo partly drawn) [Compound 95, (3R)-3-[4-[4-(3,4-difluorobenzoyl)morpholin-3-yl]triazol-1-yl]-4-(2-naphthyl)butanehydroxamic acid]", "Activity: ratio (CC50 of CFZ alone)/(CC50 of CFZ in combination with compound of the invention)": 2.1}, {"molecule": "O=C(C[C@@H](Cc1ccc2c(c1)OCCO2)n1cc(CNC(=O)c2ccc(F)c(F)c2)nn1)NO", "note": "[Compound 183, (R)—N-((1-(1-(2,3-dihydrobenzo[b][1,4]dioxin-6-yl)-4-(hydroxyamino)-4-oxobutan-2-yl)-1H-1,2,3-triazol-4-yl)methyl)-3,4-difluorobenzamide]", "Activity: ratio (CC50 of CFZ alone)/(CC50 of CFZ in combination with compound of the invention)": 1.2}, {"molecule": "Cn1ccc2cc(C[C@H](CC(=O)NO)n3cc(CNC(=O)c4ccc(F)cc4)nn3)ccc21", "note": "[Compound 177, (R)-4-fluoro-N-((1-(4-(hydroxyamino)-1-(1-methyl-1H-indol-5-yl)-4-oxobutan-2-yl)-1H-1,2,3-triazol-4-yl)methyl)benzamide]", "Activity: ratio (CC50 of CFZ alone)/(CC50 of CFZ in combination with compound of the invention)": 1.7}, {"molecule": "CC(NC(=O)c1ccc(F)c(F)c1)c1cn([C@@H](CC(=O)NO)Cc2ccc3ccccc3c2)nn1", "note": "(stereo in doubt) [Compound 78, 3,4-difluoro-N-[1-[1-[3-(hydroxyamino)-1-(2-naphthylmethyl)-3-oxo-propyl]triazol-4-yl]ethyl]benzamide]", "Activity: ratio (CC50 of CFZ alone)/(CC50 of CFZ in combination with compound of the invention)": 2.0}, {"molecule": "CN(Cc1cn([C@@H](CC(=O)NO)Cc2ccc3ccccc3c2)nn1)C(=O)c1ccc(F)c(F)c1", "note": "[Compound 87]", "Activity: ratio (CC50 of CFZ alone)/(CC50 of CFZ in combination with compound of the invention)": 1.7}, {"molecule": "CC(NC(=O)c1ccc(F)c(F)c1)c1cn([C@@H](CC(=O)NO)Cc2c[nH]c3ccccc23)nn1", "note": "(stereo partly drawn) [Compound 91, 3,4-difluoro-N-[1-[1-[(1R)-3-(hydroxyamino)-1-(1H-indol-3-ylmethyl)-3-oxo-propyl]triazol-4-yl]ethyl]benzamide]", "Activity: ratio (CC50 of CFZ alone)/(CC50 of CFZ in combination with compound of the invention)": 1.4}, {"molecule": "COc1ccc2cc([C@H](C)C(=O)NCc3cnnn3[C@@H](CC(=O)NO)Cc3ccc4ccccc4c3)ccc2c1", "note": "[Compound 26, (R,S)—N-hydroxy-3-(5-{[2-(6-methoxy-naphthalen-2-yl)-propionylamino]-methyl}-[1,2,3]triazol-1-yl)-4-naphthalen-2-yl-butyramide]", "Activity: ratio (CC50 of CFZ alone)/(CC50 of CFZ in combination with compound of the invention)": 1.8}, {"molecule": "O=C(C[C@@H](Cc1ccc2ccsc2c1)n1cc(CNC(=O)c2ccc(F)cc2)nn1)NO", "note": "[Compound 174, (R)—N-((1-(1-(benzo[b]thiophen-6-yl)-4-(hydroxyamino)-4-oxobutan-2-yl)-1H-1,2,3-triazol-4-yl)methyl)-4-fluorobenzamide]", "Activity: ratio (CC50 of CFZ alone)/(CC50 of CFZ in combination with compound of the invention)": "2.0 and 1.5"}, {"molecule": "O=C(C[C@@H](Cc1cc2ccccc2s1)n1cc(CNC(=O)c2ccc(F)cc2)nn1)NO", "note": "[Compound 182, (S)—N-((1-(1-(benzo[b]thiophen-2-yl)-4-(hydroxyamino)-4-oxobutan-2-yl)-1H-1,2,3-triazol-4-yl)methyl)-4-fluorobenzamide]", "Activity: ratio (CC50 of CFZ alone)/(CC50 of CFZ in combination with compound of the invention)": 2.7}, {"molecule": "O=C(C[C@@H](Cc1ccc2sccc2c1)n1cc(CNC(=O)c2ccc(F)cc2)nn1)NO", "note": "[Compound 173, (R)—N-((1-(1-(benzo[b]thiophen-5-yl)-4-(hydroxyamino)-4-oxobutan-2-yl)-1H-1,2,3-triazol-4-yl)methyl)-4-fluorobenzamide]", "Activity: ratio (CC50 of CFZ alone)/(CC50 of CFZ in combination with compound of the invention)": 2.1}, {"molecule": "O=C(C[C@@H](Cc1ccc2ccccc2c1)n1cc(COCc2ccccc2)nn1)NO", "note": "[Compound 23, (R)-3-(4-benzyloxymethyl-[1,2,3]triazol-1-yl)-N-hydroxy-4-naphthalen-2-yl-butyramide]", "Activity: ratio (CC50 of CFZ alone)/(CC50 of CFZ in combination with compound of the invention)": 1.1}, {"molecule": "CC(NC(=O)c1ccc(F)cc1)c1cn([C@@H](CC(=O)NO)Cc2csc3ccccc23)nn1", "note": "(stereo partly drawn) [Compound 181, N-(1-(1-((R)-1-(benzo[b]thiophen-3-yl)-4-(hydroxyamino)-4-oxobutan-2-yl)-1H-1,2,3-triazol-4-yl)ethyl)-4-fluorobenzamide]", "Activity: ratio (CC50 of CFZ alone)/(CC50 of CFZ in combination with compound of the invention)": 1.9}, {"molecule": "O=C(C[C@@H](Cc1ccc2ccccc2c1)n1cc(CC(=O)Nc2ccc(F)c(F)c2)nn1)NO", "note": "[Compound 74, 3-{4-[(3,4-Difluoro-phenylcarbamoyl)-methyl]-[1,2,3]triazol-1-yl}-N-hydroxy-4-naphthalen-2-yl-butyramide]", "Activity: ratio (CC50 of CFZ alone)/(CC50 of CFZ in combination with compound of the invention)": 1.6}, {"molecule": "O=C(C[C@@H](Cc1ccc2ccccc2c1)n1cc(CNC(=O)c2cccc(F)c2)nn1)NO", "note": "[Compound 184, (R)-3-fluoro-N-((1-(4-(hydroxyamino)-1-(naphthalen-2-yl)-4-oxobutan-2-yl)-1H-1,2,3-triazol-4-yl)methyl)benzamide]", "Activity: ratio (CC50 of CFZ alone)/(CC50 of CFZ in combination with compound of the invention)": 2.4}, {"molecule": "O=C(C[C@@H](Cc1c[nH]c2ccccc12)n1cc(C(Cc2ccc(O)cc2)NC(=O)c2ccc(F)c(F)c2)nn1)NO", "note": "(stereo partly drawn) [Compound 146, 3,4-Difluoro-N-[1-[1-[(1R)-3-(hydroxyamino)-1-(1H-indol-3-ylmethyl)-3-oxo-propyl]triazol-4-yl]-2-(4-hydroxyphenyl)ethyl]benzamide]", "Activity: ratio (CC50 of CFZ alone)/(CC50 of CFZ in combination with compound of the invention)": 1.4}, {"molecule": "CC(NC(=O)c1ccc(F)cc1)c1cn([C@@H](CC(=O)NO)Cc2ccc3c(c2)C(C)(C)CCC3(C)C)nn1", "note": "(stereo partly drawn) [Compound 172, 4-fluoro-N-(1-(1-((R)-4-(hydroxyamino)-4-oxo-1-(5,5,8,8-tetramethyl-5,6,7,8-tetrahydronaphthalen-2-yl)butan-2-yl)-1H-1,2,3-triazol-4-yl)ethyl)benzamide]", "Activity: ratio (CC50 of CFZ alone)/(CC50 of CFZ in combination with compound of the invention)": 3.9}]}]}
